Measurements from US6545049B1, “Dimer-selective RXR modulators and methods for their use” (Ligand Pharmaceuticals Incorporated, priority 1995, dated 2003).

Tests used:
RXRα = target: T1, RXRα (Homo sapiens, UniProt P19793); assay: RXR binding, RXRα; conditions: -v- tritiated LGD1069 and tritiated 9-cis retinoic acid
T1 sequence (P19793 1-462): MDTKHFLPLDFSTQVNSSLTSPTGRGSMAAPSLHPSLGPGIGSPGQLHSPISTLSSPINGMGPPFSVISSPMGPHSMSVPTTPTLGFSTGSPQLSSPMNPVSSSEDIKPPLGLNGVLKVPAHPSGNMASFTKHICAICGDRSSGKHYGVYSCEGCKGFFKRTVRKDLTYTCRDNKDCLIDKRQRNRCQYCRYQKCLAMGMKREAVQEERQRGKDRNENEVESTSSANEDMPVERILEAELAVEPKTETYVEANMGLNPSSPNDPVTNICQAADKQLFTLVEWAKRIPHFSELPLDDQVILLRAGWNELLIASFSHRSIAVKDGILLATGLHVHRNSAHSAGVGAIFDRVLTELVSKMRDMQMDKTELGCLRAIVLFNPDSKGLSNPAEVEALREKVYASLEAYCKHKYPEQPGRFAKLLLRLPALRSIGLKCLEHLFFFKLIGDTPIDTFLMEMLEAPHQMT
Procedure: (§1) Non-specific binding was defined as that binding remaining in the presence of 500 nM of the appropriate unlabelled compound. At the end of the incubation period, bound from free ligand were separated. The amount of bound tritiated retinoids was determined by liquid scintillation counting of an aliquot (700 μL) of the supernatant fluid or the hydroxylapatite pellet.
(§2) After correcting for non-specific binding, IC50 values were determined. […] The IC50 value was determined graphically from a log-logit plot of the data. The Kd values were determined by application of the Cheng-Prussof equation to the IC50 values, the labeled ligand concentration and the Kd of the labeled ligand.

RXRβ = target: T2, RXRβ (Mus musculus, UniProt P28704); assay: RXR binding, RXRβ; conditions: -v- tritiated LGD1069 and tritiated 9-cis retinoic acid
T2 sequence (P28704 1-520): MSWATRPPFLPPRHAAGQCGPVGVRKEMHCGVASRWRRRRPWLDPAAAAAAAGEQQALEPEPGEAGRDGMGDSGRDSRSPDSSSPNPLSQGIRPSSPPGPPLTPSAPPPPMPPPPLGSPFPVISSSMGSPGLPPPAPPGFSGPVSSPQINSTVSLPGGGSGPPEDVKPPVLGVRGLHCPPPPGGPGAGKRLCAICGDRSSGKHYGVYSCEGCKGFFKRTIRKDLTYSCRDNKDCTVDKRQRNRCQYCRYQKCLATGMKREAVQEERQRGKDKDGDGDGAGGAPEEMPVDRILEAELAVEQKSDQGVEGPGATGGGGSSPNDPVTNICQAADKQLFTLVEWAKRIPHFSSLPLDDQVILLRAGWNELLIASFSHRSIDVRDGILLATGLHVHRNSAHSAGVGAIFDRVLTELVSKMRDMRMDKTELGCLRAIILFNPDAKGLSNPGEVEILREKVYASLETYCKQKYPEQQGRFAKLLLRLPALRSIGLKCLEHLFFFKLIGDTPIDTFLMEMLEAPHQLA
Procedure: as §1, §2

RXRγ = target: T3, RXRγ (Mus musculus, UniProt P28705); assay: RXR binding, RXRγ; conditions: -v- tritiated LGD1069 and tritiated 9-cis retinoic acid
T3 sequence (P28705 1-463): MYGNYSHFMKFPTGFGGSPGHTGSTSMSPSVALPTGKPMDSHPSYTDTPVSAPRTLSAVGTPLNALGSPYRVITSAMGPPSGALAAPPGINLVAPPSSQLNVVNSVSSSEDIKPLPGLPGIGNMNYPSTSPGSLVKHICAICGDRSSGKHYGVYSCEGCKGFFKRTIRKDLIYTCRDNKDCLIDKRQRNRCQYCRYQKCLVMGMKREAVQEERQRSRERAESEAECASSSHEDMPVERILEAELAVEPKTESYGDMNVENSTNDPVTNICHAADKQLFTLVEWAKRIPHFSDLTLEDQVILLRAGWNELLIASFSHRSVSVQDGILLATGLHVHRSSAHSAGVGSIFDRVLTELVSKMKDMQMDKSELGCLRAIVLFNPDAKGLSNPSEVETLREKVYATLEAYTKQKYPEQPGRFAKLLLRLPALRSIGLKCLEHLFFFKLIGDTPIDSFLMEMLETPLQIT
Procedure: as §1, §2

Row | Structure (SMILES) | Kd (RXRα) [nM] | Kd (RXRβ) [nM] | Kd (RXRγ) [nM] | melting point
1 | CC(C=CC=C(C)c1cc2c(cc1OCC(C)C)C(C)(C)CCC2(C)C)=CC(=O)O [Compound 169, (2E, 4E, 6Z)-7-[3-isobutyloxy-5,6,7,8-tetrahydro-5,5,8,8-tetramethyl-2-naphthalen-2-yl]-3-methyl-octa-2,4,6-trienoic acid] | 5 | 14 | 31 | 
2 | CCCc1cc2c(cc1C(=O)c1ccc(C(=O)O)cc1)C(C)(C)CCC2(C)C [Compound 101, 4-[(3-n-propyl-5,6,7,8-tetrahydro-5,5,8,8-tetramethyl-2-naphthyl)carbonyl]benzoic acid] |  |  |  | 252 to 254 °C
3 | COc1ccc(COc2cc3c(cc2/C(C)=C/C=C/C(C)=C/C(=O)O)C(C)(C)CCC3(C)C)cc1 [Compound 174, (2E, 4E, 6E)-7-[3-(4-methoybenzyloxy)-5,6,7,8-tetrahydro-5,5,8,8-tetramethyl-2-naphthalen-2-yl]-3-methyl-octa-2,4,6-trienoic acid] | 5 | 43 | 46 | 
4 | CCOc1cc2c(cc1C=Cc1ccc(C(=O)O)cc1)C(C)(C)CCC2(C)C [Compound 107, 4-[(3-ethoxy-5,6,7,8-tetrahydro-5,5,8,8-tetramethyl-2-naphthyl)ethenyl]benzoic acid] |  |  |  | 195 to 200 °C (dec.)
5 | CCCCOc1cc2c(cc1C=Cc1ccc(C(=O)O)cc1)C(C)(C)CCC2(C)C [Compound 112, 4-[(3-butyloxy-5,6,7,8-tetrahydro-5,5,8,8-tetramethyl-2-naphthyl)ethenyl]benzoic acid] |  |  |  | 194 to 196 °C
6 | CON=C(c1ccc(C(=O)O)cc1)c1cc2c(cc1OCc1ccccc1)C(C)(C)CCC2(C)C [Compound 163, trans-4-[(3-benzyloxy-5,6,7,8-tetrahydro-5,5,8,8-tetramethyl-2-naphthyl)carbonyl]benzoic acid O-methyloxime] | 2 | 6 | 6 | 
7 | COC(C)(c1ccc(C(=O)O)cc1)c1cccc2cc3c(cc12)C(C)(C)CCC3(C)C (stereo not shown) [Compound 141, 4-[1-methoxy-1-(5,6,7,8-tetrahydro-5,5,8,8-tetramethyl-anthracen-1-yl)ethyl)benzoic acid] | 49 | 13 | 70 | 
8 | CCCCCCCOc1c(/C(C)=C/C=C/C(C)=C/C(=O)O)cc(C(C)C)cc1C(C)C [Compound 146, (2E, 4E, 6E)-7-(3,5-diisopropyl-2-n-heptyloxyphenyl)-3-methylocta-2,4,6-trienoic acid] | 46 | 100 | 116 | 
9 | CC1(C)CCC(C)(C)c2cc(C3(c4ccc(C(=O)O)cc4)OCCO3)c(OCc3ccccc3)cc21 [Compound 164, 4-[2-(3-benzyloxy-5,6,7,8-tetrahydro-5,5,8,8-tetramethyl-2-naphthyl)-[1,3]dioxolan-2-yl]benzoic acid] |  |  |  | 222 to 228 °C (dec.)
10 | CCCCCCCOc1c(C(C)C)cc(C(C)C)cc1C(C)C/C=C/C(C)=C/C(=O)O (stereo not shown) [Compound 148, (2E, 4E)-7-(3,5-diisopropyl-2-n-heptyloxyphenyl)-3-methylocta-2,4-dienoic acid] | 53 | 87 | 84 | 
11 | CCCCCOc1cc2c(cc1/C(C)=C/C=C/C(C)=C/C(=O)O)C(C)(C)CCC2(C)C [Compound 170, (2E, 4E, 6E)-7-[3-pentyloxy-5,6,7,8-tetrahydro-5,5,8,8-tetramethyl-2-naphthalen-2-yl]-3-methyl-octa-2,4,6-trienoic acid] | 11 | 41 | 78 | 
12 | CCCCCCCOc1c(C(C)C)cc(C(C)C)cc1C(C)C/C=C/C(C)=C\C(=O)O (stereo not shown) [Compound 149, (2Z, 4E)-7-(3,5-diisopropyl-2-n-heptyloxyphenyl)-3-methylocta-2,4-dienoic acid] | 16 | 37 | 42 | 
13 | CCCCCCCOc1cc2c(cc1\C(C)=C/C=C/C(C)=C/C(=O)O)C(C)(C)CCC2(C)C [Compound 173, (2E, 4E, 6Z)-7-[3-heptyloxy-5,6,7,8-tetrahydro-5,5,8,8-tetramethyl-2-naphthalen-2-yl]-3-methyl-octa-2,4,6-trienoic acid] | 4 | 12 | 21 | 
14 | Cc1cc2c(cc1C(=O)c1ccc(C(=O)NOCc3ccccc3)cc1)C(C)(C)CCC2(C)C [Compound 105, 4-[(3,5,5,8,8-pentamethyl-5,6,7,8-tetrahydro-2-naphthyl)carbonyl]benzoic acid O-benzyloxime] |  |  |  | 169 to 172 °C
15 | CCCCCCCOc1cc2c(cc1C=Cc1ccc(C(=O)O)cc1)C(C)(C)CCC2(C)C [Compound 116, 4-[(3-heptyloxy-5,6,7,8-tetrahydro-5,5,8,8-tetramethyl-2-naphthyl)ethenyl]benzoic acid] |  |  |  | 153 to 155 °C
16 | CCCOc1cc2c(cc1C(C)C/C=C/C(C)=C/C(=O)O)C(C)(C)CCC2(C)C (stereo not shown) [Compound 175, (2E, 4E)-7-[3-propoxy-5,6,7,8-tetrahydro-5,5,8,8-tetramethyl-2-naphthalen-2-yl]-3-methyl-octa-2,4-dienoic acid] | 11 | 21 | 31 | 
17 | C=C(c1ccc(C(=O)O)cc1)c1cccc2cc3c(cc12)C(C)(C)CCC3(C)C [Compound 142, 4-[1-(5,6,7,8-tetrahydro-5,5,8,8-tetramethyl-anthracen-1-yl)vinyl)benzoic acid] | 27 | 90 | 50 | 
18 | CCCOc1cc2c(cc1C1=C(/C=C/C(C)=C/C(=O)O)CCC1)C(C)(C)CCC2(C)C [Compound 158, (2E, 4E)-5-[2-(5,5,8,8-tetramethyl-3-propyloxy-5,6,7,8-tetrahydronaphthalen-2yl)cyclopent-1-en-1-yl]-3-methyl pentadienoic cid] | 21 | 53 | 106 | 
19 | CCCCCCOc1cc2c(cc1/C(C)=C/C=C/C(C)=C/C(=O)O)C(C)(C)CCC2(C)C [Compound 125, (2E, 4E, 6E)-7-[3-hexyloxy-5,6,7,8-tetrahydro-5,5,8,8-tetramethyl-2-naphthalen-2-yl]-3-methylocta-2,4,6-trienoic acid] | 56 | 145 | 186 | 
20 | CCCCCCONC(=O)c1ccc(C(=O)c2cc3c(cc2C)C(C)(C)CCC3(C)C)cc1 [Compound 106, 4-[(3,5,5,8,8-pentamethyl-5,6,7,8-tetrahydro-2-naphthyl)carbonyl]benzoic acid O-hexyloxime] |  |  |  | 91 to 95 °C
21 | CC1(C)CCC(C)(C)c2cc(C(=O)c3ccc(C(=O)NO)cc3)c(OCc3ccc(Br)cc3)cc21 [Compound 161, 4-[(3-(4-bromobenzyloxy)-5,6,7,8-tetrahydro-5,5,8,8-tetramethyl-2-naphthyl)carbonyl]benzoic acid oxime] |  |  |  | 221 to 223.5 °C
22 | CCCCOc1cc2c(cc1C(=O)c1ccc(C(=O)O)cc1)C(C)(C)CCC2(C)C [Compound 111, 4-[(3-butyloxy-5,6,7,8-tetrahydro-5,5,8,8-tetramethyl-2-naphthyl)carbonyl]benzoic acid] |  |  |  | 207 to 210 °C
23 | CCCCCCCOc1cc2c(cc1C(=O)c1ccc(C(=O)NO)cc1)C(C)(C)CCC2(C)C [Compound 115, 4-[(3-heptyloxy-5,6,7,8-tetrahydro-5,5,8,8-tetramethyl-2-naphthyl)carbonyl]benzoic acid oxime] |  |  |  | 200 to 205 °C
